Data on 25 compounds can be found in patent publication US11492347B2 (ENYO PHARMA, priority 2018, dated 2022).

This assay deals with H1N1 (influenza A/New Caledonia/20/99). Kind of assay: microbe, parasite or virus in culture. It is filed as cell-based. Particulars: H1N1, A549, 48 h.

Structures can show the parent of a compound that is named as a salt.

In turn, `CC1(C)CCc2c(sc(NC(=O)c3ccccn3)c2C(=O)O)C1` [Compound #96, 6,6-Dimethyl-2-(pyridine-2-carbonylamino)-5,7-dihydro-4H-benzothiophene-3-carboxylic acid] had a concentration for half-maximal inhibition (IC50) of 0.8 µM. This lies in the sub-micromolar range.
In the case of `CC1(C)CCc2sc(NC(=O)c3cccc(OC(F)F)c3)c(C(=O)O)c21` [Compound #98, 2-[[3-(Difluoromethoxy)benzoyl]amino]-4,4-dimethyl-5,6-dihydrocyclopenta[b]thiophene-3-carboxylic acid] it was 0.8 µM; in that of `Cc1ccccc1C(=O)Nc1sc2c(c1C(=O)O)CCC(C#N)(c1ccccc1)C2` (stereo not shown) [Compound #105, 6-Cyano-2-[(2-methylbenzoyl)amino]-6-phenyl-5,7-dihydro-4H-benzothiophene-3-carboxylic acid], 1.08 µM; in that of `O=C(Nc1sc2c(c1C(=O)O)CCC(F)(F)C2)c1ccccc1` [Compound #117, 2-Benzamido-6,6-difluoro-5,7-dihydro-4H-benzothiophene-3-carboxylic acid], 1.9 µM.
With `CC1(C)Cc2c(sc(NC(=O)c3ccc(NC4CCNCC4)cc3)c2C(=O)O)C(C)(C)C1` [Compound #131, hydrochloride salt] the figure was 0.35 µM.
With `CC(=O)N1CC(Nc2ccc(C(=O)Nc3sc4c(c3C(=O)O)CC(C)(C)CC4(C)C)cc2)C1` [Compound #133, 2-[[4-[(1-Acetylazetidin-3-yl)amino]benzoyl]amino]-5,5,7,7-tetramethyl-4,6-dihydrobenzothiophene-3-carboxylic acid], the IC50 was found to be 0.75 µM.
In the case of `CC1(C)Cc2c(sc(NC(=O)c3ccc(NC4COC4)cc3)c2C(=O)O)C(C)(C)C1` [Compound #139, 5,5,7,7-Tetramethyl-2-[[4-(oxetan-3-ylamino)benzoyl]amino]-4,6-dihydrobenzothiophene-3-carboxylic acid] it was 0.011 µM.
In the case of `COCCCNc1ccc(C(=O)Nc2sc3c(c2C(=O)O)CC(C)(C)CC3(C)C)cc1` [Compound #140, 2-[[4-(3-Methoxypropylamino)benzoyl]amino]-5,5,7,7-tetramethyl-4,6-dihydrobenzothiophene-3-carboxylic acid] it was 0.0034 µM; in that of `CC1(C)Cc2c(sc(NC(=O)c3ccc(NCC4CCCOC4)cc3)c2C(=O)O)C(C)(C)C1` (stereo not shown) [Compound #141, 5,5,7,7-Tetramethyl-2-[[4-(tetrahydropyran-3-ylmethylamino)benzoyl]amino]-4,6-dihydrobenzothiophene-3-carboxylic acid], 0.0033 µM.
With `CC1(C)Cc2c(sc(NC(=O)c3ccc(NC4CCCOC4)cc3)c2C(=O)O)C(C)(C)C1` (stereo not shown) [Compound #142, 5,5,7,7-Tetramethyl-2-[[4-(tetrahydropyran-3-ylamino)benzoyl]amino]-4,6-dihydrobenzothiophene-3-carboxylic acid] the figure was 0.0064 µM.
For the compound `CC1(C)Cc2c(sc(NC(=O)c3ccc(N4CC5(COC5)C4)cc3)c2C(=O)O)C(C)(C)C1` [Compound #143, 5,5,7,7-Tetramethyl-2-[[4-(2-oxa-6-azaspiro[3.3]heptan-6-yl)benzoyl]amino]-4,6-dihydrobenzothiophene-3-carboxylic acid], half-maximal inhibition (IC50) required 0.16 µM. This IC50 lies about 25-fold higher than the previous one.
`CC1(C)Cc2c(sc(NC(=O)c3ccc(N4CCC5(CC4)COC5)cc3)c2C(=O)O)C(C)(C)C1` [Compound #144, 5,5,7,7-Tetramethyl-2-[[4-(2-oxa-7-azaspiro[3.5]nonan-7-yl)benzoyl]amino]-4,6-dihydrobenzothiophene-3-carboxylic acid] returned an IC50 of 0.035 µM. This IC50 is about 4.6-fold lower than that of the compound before.
The compound `COCCNc1ccc(C(=O)Nc2sc3c(c2C(=O)O)C(C)CC(C)(C)C3)cc1` (stereo not shown) [Compound #145, 2-1-[[4-(2-Methoxyethylamino)benzoyl]amino]-4,6,6-trimethyl-5,7-dihydro-411-benzothiophene-3-carboxylic acid] displayed an IC50 of 0.032 µM.
In the case of `COC1CN(c2ccc(C(=O)Nc3sc4c(c3C(=O)O)C(C)(C)CC4)cc2)C1` [Compound #146, 2-[[4-(3-Methoxyazetidin-1-yl)benzoyl]amino]-4,4-dimethyl-5,6-dihydrocyclopenta[b]thiophene-3-carboxylicacid] it was 0.083 µM; in that of `CC1(C)Cc2c(sc(NC(=O)c3ccc(N4CC(F)(F)C4)cc3)c2C(=O)O)C(C)(C)C1` [Compound #148, 2-[[4-(3,3-Difluoroazetidin-1-yl)benzoyl]amino]-5,5,7,7-tetramethyl-4,6-dihydrobenzothiophene-3-carboxylic acid], 0.0026 µM.
In the case of `CC1(C)Cc2c(sc(NC(=O)c3ccc(NC4CCCCC4)cc3)c2C(=O)O)C(C)(C)C1` [Compound #149, 2-[[4-(Cyclohexylamino)benzoyl]amino]-5,5,7,7-tetramethyl-4,6-dihydrobenzothiophene-3-carboxylic acid] it was 0.0071 µM; in that of `COCCN(C)c1ccc(C(=O)Nc2sc3c(c2C(=O)O)CC(C)(C)CC3(C)C)cc1` [Compound #150, 2-[[4-[2-Methoxyethyl(methyl)amino]benzoyl]amino]-5,5,7,7-tetramethyl-4,6-dihydrobenzothiophene-3-carboxylic acid], 0.0039 µM; in that of `CN(CC1CCOCC1)c1ccc(C(=O)Nc2sc3c(c2C(=O)O)CC(C)(C)CC3(C)C)cc1` [Compound #152, 5,5,7,7-Tetramethyl-2-[[4-[methyl(tetrahydropyran-4-ylmethyl)amino]benzoyl]amino]-4,6-dihydrobenzothiophene-3-carboxylicacid], 0.0005 µM.
Consider `COC1CN(c2ccc(C(=O)Nc3sc4c(c3C(=O)O)C(C)CC(C)(C)C4)cc2)C1` (stereo not shown) [Compound #153, 2-[[4-(3-Methoxyazetidin-1-yl)benzoyl]amino]-4,6,6-trimethyl-5,7-dihydro-4H-benzothiophene-3-carboxylic acid], for which it took 0.014 µM to reach half-maximal inhibition (IC50).
Compound `CC1(C)CCc2sc(NC(=O)c3ccc(Br)cc3)c(C(=O)O)c2C1` [Compound #154, 2-[(4-Bromobenzoyl)amino]-5,5-dimethyl-6,7-dihydro-4H-benzothiophene-3-carboxylic acid] gave an IC50 of 0.03 µM.
In the case of `COC1CCN(c2ccc(C(=O)Nc3sc4c(c3C(=O)O)CC(C)(C)CC4(C)C)cc2)CC1` [Compound #155, 2-[[4-(4-Methoxy-1-piperidyl)benzoyl]amino]-5,5,7,7-tetramethyl-4,6-dihydrobenzothiophene-3-carboxylic acid] it was 0.01 µM.
`CCOC1CN(c2ccc(C(=O)Nc3sc4c(c3C(=O)O)CC(C)(C)CC4(C)C)cc2)C1` [Compound #156, 2-[[4-(3-Ethoxyazetidin-1-yl)benzoyl]amino]-5,5,7,7-tetramethyl-4,6-dihydrobenzothiophene-3-carboxylic acid] showed an IC50 of 0.002 µM.
With `CC1CC(C)(C)Cc2sc(NC(=O)c3ccc(NCC4CCOCC4)cc3)c(C(=O)O)c21` (stereo not shown) [Compound #157, 4,6,6-Trimethyl-2-[[4-(tetrahydropyran-4-ylmethylamino)benzoyl]amino]-5,7-dihydro-4H-benzothiophene-3-carboxylic acid] the figure was 0.005 µM; with `CC1(C)CCc2sc(NC(=O)c3ccc(Br)cc3)c(C(=O)O)c21` [Compound #158, 2-[(4-Bromobenzoyl)amino]-4,4-dimethyl-5,6-dihydro cyclopenta[b]thiophene-3-carboxylic acid], 0.32 µM; with `CC1(C)CCc2sc(NC(=O)c3ccc(N4CCOCC4)cc3)c(C(=O)O)c2C1` [Compound #159, 5,5-Dimethyl-2-[(4-morpholinobenzoyl)amino]-6,7-dihydro-4H-benzothiophene-3-carboxylic acid], 0.018 µM.
